Measured values from PMC7523975, “Alkaloids of Abuta panurensis Eichler: In silico and in vitro study of acetylcholinesterase inhibition, cytotoxic and immunomodulatory activities” (PLoS ONE, 2020).

What was measured:
[1] = biological target: T1, acetylcholinesterase (AChE, TcAChE) (Tetronarce californica, UniProt P04058); experiment: Ellman colorimetric assay with commercial enzyme, […] nm; format: biochemical
[2] = biological target: T1, acetylcholinesterase (AChE, TcAChE); experiment: Ellman colorimetric assay with commercial enzyme, […] nm (positive control); format: biochemical

T1 sequence (P04058 22-564): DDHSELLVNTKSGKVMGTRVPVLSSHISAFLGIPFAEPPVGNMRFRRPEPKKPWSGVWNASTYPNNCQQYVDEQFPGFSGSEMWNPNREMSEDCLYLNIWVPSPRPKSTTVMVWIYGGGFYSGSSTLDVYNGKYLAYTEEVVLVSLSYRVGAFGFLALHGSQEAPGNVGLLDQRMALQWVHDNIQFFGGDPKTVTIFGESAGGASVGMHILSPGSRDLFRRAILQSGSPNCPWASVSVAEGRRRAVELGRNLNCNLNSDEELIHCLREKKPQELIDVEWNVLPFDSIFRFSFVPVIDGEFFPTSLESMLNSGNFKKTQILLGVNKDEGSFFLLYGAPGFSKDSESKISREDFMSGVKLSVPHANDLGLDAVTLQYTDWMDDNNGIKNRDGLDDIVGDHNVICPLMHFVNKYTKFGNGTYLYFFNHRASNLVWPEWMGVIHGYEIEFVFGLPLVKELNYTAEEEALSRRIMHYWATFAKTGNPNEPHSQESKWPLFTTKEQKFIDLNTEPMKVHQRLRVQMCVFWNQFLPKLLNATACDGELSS

Compound	IC50 [1] [µM]	IC50 [2] [µM]
CN(CCCCNC(=O)/C=C/c1ccccc1)CCCNC(=O)/C=C/c1ccccc1 [compound 1, 5-N-methylmaytenine]	19.6	–
COC1=CC2CCNC3CC4(C=CC(=O)C=C4)C(=C1OC)C23 (stereo not drawn) [compound 2, stepharine]	61.2	–
CN(C)C(=O)Oc1cccc([N+](C)(C)C)c1 [neostigmine]	–	3.72
